Source: US20240024324A1, “KINASE INHIBITOR COMBINATIONS FOR CANCER TREATMENT” (Merck Patent GmbH, priority 2020, published 2024)

Legend:
[1] = tested on: GSC11; experiment: Induction of apoptosis in GSC lines in vitro; format: cell-based
Description: (§1) FIG. 1: In vitro analyses in GSC lines. (A) Western blot analysis of protein expression; (B) IC50 of M2698; (C) IC50 of pimasertib; and (D) apoptotic GSC11, GSC7-2, and GSC17 cells after treatment with M2698, pimasertib, or M2698+pimasertib combination. […]
(§2) Induction of apoptosis by M2698, pimasertib, and the combination was measured in three of five GSC lines that were sensitive to M2698 in vitro.

[2] = tested on: GSC7-2; experiment: Induction of apoptosis in GSC lines in vitro; format: cell-based
Description: as §1, §2

[3] = tested on: GSC17; experiment: Induction of apoptosis in GSC lines in vitro; format: cell-based
Description: as §1, §2

[4] = tested on: Colorectal Cancer PDX; experiment: 75 PDX models of colorectal cancer; format: in vivo; conditions: CRC PDX; M2698 25 mg/kg po qd, Pimasertib 20 mg/kg po qd, Cetuximab 20 mg/kg ip q2w
Description: Of the 75 models, 25 were wild type, 25 KRas mutant, and 25 BRaf mutant.

[5] = tested on: Non-Small Lung Cancer (NSCLC) Brain Metastases PDX; experiment: PDX models of NSCLC brain metastases; format: in vivo
[6] = tested on: human cholangiocarcinoma cancer PDX; experiment: PDX models of cholangiocarcinoma; format: in vivo, mice; conditions: 20 mg/kg each agent QD PO
Description: The objective of this experiment was to evaluate the antitumor activity of M2698 alone and in combination with Pimasertib in a panel of 13 Patient-Derived Xenograft models representing human cholangiocarcinoma cancer derived from Chinese patients in immune-deficient mice.
Vehicle: 0.5% Methocel/0.25% Tween20 in Milli-Q Water. Tumors from three untreated mice were collected as satellite samples when reached a tumor volume between 300-500 mm3.

[7] = tested on: GSC272; experiment: GSC lines: sensitivity in vitro (IC50); format: cell-based; conditions: GSC272 line in vitro
Description: FIG. 1: In vitro analyses in GSC lines. (A) Western blot analysis of protein expression; (B) IC50 of […]; (C) IC50 of pimasertib; and (D) apoptotic GSC11, GSC7-2, and GSC17 cells after treatment with […], pimasertib, or […]+pimasertib combination. Single agents were tested at their IC50; half the IC50 of each compound was used for the combination. In vitro IC50 data were used to select GSC lines for in vivo studies; […] All GSC lines expressed Akt. Relatively high pAkt expression in GSC17, GSC7-2, GSC231, GSC11, GSC20, GSC6-27, and GSC8-11 lines compared with GSC272 and GSC267 (FIG. 1A). […] (FIG. 1B).

[8] = tested on: Her2+/HR− Breast Cancer PDX; experiment: PDX models of Her2+/HR- breast cancer; format: in vivo
[9] = in vivo; cited from earlier work
[10] = tested on: GSC6-27; experiment: Orthotopic GSC xenograft model; format: in vivo, mice
Description: (§3) The in vivo effects of M2698 and pimasertib, alone and in combination, were assessed in the GSC models after orthotopic implantation into mice. Treatment duration and time of euthanasia post-implantation was 5-10 weeks. Endpoints were expression of PD markers pS6 and pERK, proliferation marker Ki67, apoptosis as measured by TUNEL, tumor volume and survival.

[11] = tested on: GSC11; experiment: Orthotopic GSC xenograft model; format: in vivo, mice
Description: as §3

[12] = tested on: GSC7-2; experiment: Orthotopic GSC xenograft model; format: in vivo, mice
Description: as §3

[13] = tested on: GSC20; experiment: Orthotopic GSC xenograft model; format: in vivo, mice
Description: as §3

[14] = tested on: GSC272; experiment: Orthotopic GSC xenograft model; format: in vivo, mice
Description: as §3

[15] = tested on: GSC231; experiment: Orthotopic GSC xenograft model; format: in vivo, mice
Description: as §3

[16] = tested on: GSC17; experiment: Orthotopic GSC xenograft model; format: in vivo, mice
Description: as §3

[17] = tested on: GSC6-27; experiment: GSC lines: sensitivity in vitro (IC50); format: cell-based; conditions: GSC6-27 line in vitro
Description: (§4) FIG. 1: In vitro analyses in GSC lines. (A) Western blot analysis of protein expression; (B) IC50 of M2698; (C) IC50 of pimasertib; and (D) apoptotic GSC11, GSC7-2, and GSC17 cells after treatment with M2698, pimasertib, or M2698+pimasertib combination. Single agents were tested at their IC50; half the IC50 of each compound was used for the combination.
(§5) All GSC lines expressed Akt. Relatively high pAkt expression in GSC17, GSC7-2, GSC231, GSC11, GSC20, GSC6-27, and GSC8-11 lines compared with GSC272 and GSC267 (FIG. 1A).

[18] = tested on: GSC11; experiment: GSC lines: sensitivity in vitro (IC50); format: cell-based
Description: as §4, §5

[19] = tested on: GSC7-2; experiment: GSC lines: sensitivity in vitro (IC50); format: cell-based
Description: as §4, §5

[20] = tested on: GSC20; experiment: GSC lines: sensitivity in vitro (IC50); format: cell-based
Description: as §4, §5

[21] = tested on: GSC231; experiment: GSC lines: sensitivity in vitro (IC50); format: cell-based; conditions: GSC231 line in vitro
Description: as §4, §5

[22] = tested on: GSC17; experiment: GSC lines: sensitivity in vitro (IC50); format: cell-based
Description: as §4, §5

Structure (SMILES): O=C(NCC(O)CO)c1ccncc1Nc1ccc(I)cc1F (stereo not drawn) [pimasertib, N-(2,3-dihydroxy-propyl)-3-(2-fluoro-4-iodo-phenylamino)-isonicotinamide, reference compound]
- apoptotic percentage ([1]; GSC11, monotherapy at 2×IC50): 62%
- apoptotic percentage ([1]; GSC11, monotherapy at the IC50): 56%
- apoptotic percentage ([2]; GSC7-2, monotherapy at 2×IC50): 17%
- apoptotic percentage ([2]; GSC7-2, monotherapy at the IC50): 13%
- apoptotic percentage ([3]; GSC17, monotherapy at 2×IC50): 12%
- apoptotic percentage ([3]; GSC17, monotherapy at the IC50): 11%
- tumor control rate (TCR) [4]: 32%
- tumor control rate (TCR), models controlled/models [4]: 24/74
- tumor control rate (TCR) [5]: 16%
- tumor stasis, number of tumor samples [6]: 1/12
- tumor stasis, share of tumor samples [6]: 8%
- IC50 [7]: > 2 µM
- tumor volume over the duration of the experiment [8]: stasis of the tumor volume
- blood-brain barrier penetration [9]: brain-penetrant
- pERK expression in orthotopic tumor ([10]; GSC6-27, PD marker): significantly reduced pERK
- median survival ([10]; GSC6-27 orthotopic, vs vehicle): no significant effects on survival
- tumor volume / tumor growth ([10]; GSC6-27 orthotopic, vs vehicle): significant tumor growth inhibition
- pERK expression in orthotopic tumor ([11]; GSC11, PD marker): significantly reduced pERK
- median survival ([11]; GSC11 orthotopic, vs vehicle): no significant effects on survival
- pERK expression in orthotopic tumor ([12]; GSC7-2, PD marker): significantly reduced pERK
- median survival ([12]; GSC7-2 orthotopic, vs vehicle): no significant effects on survival
- tumor volume / tumor growth ([12]; GSC7-2 orthotopic, vs vehicle): significant tumor growth inhibition
- number of apoptotic cells/field ([12]; GSC7-2 xenografts, after 10 weeks): 65.00±60.80 cells/field
- apoptosis in xenografts vs control ([12]; GSC7-2 xenografts, at 7.5 weeks): Neither M2698, pimasertib, nor combination treatment significantly affected apoptosis
- pERK expression in orthotopic tumor ([13]; GSC20, PD marker): significant effects of pimasertib treatment on pERK protein were not seen
- median survival ([13]; GSC20 orthotopic, vs vehicle): no significant effects on survival
- tumor volume / tumor growth ([13]; GSC20 orthotopic, vs vehicle): had not responded
- pERK expression in orthotopic tumor ([14]; GSC272, PD marker): significantly reduced pERK
- pS6 expression in orthotopic tumor ([14]; GSC272, PD marker): significantly reduced pS6
- cross-pathway reduction of pS6, trend over time ([14]; GSC272, from 7.5-10 weeks): diminished
- median survival ([14]; GSC272 orthotopic, vs vehicle): no significant effects on survival
- tumor volume / tumor growth ([14]; GSC272 orthotopic, vs vehicle): significant tumor growth inhibition
- pERK expression in orthotopic tumor ([15]; GSC231, PD marker): significantly reduced pERK
- pS6 expression in orthotopic tumor ([15]; GSC231, PD marker): significantly reduced pS6
- cross-pathway reduction of pS6, trend over time ([15]; GSC231, from 7.5-10 weeks): diminished
- median survival ([15]; GSC231 orthotopic, vs vehicle): no significant effects on survival
- tumor volume / tumor growth ([15]; GSC231 orthotopic, vs vehicle): trend towards a significant response
- pERK expression in orthotopic tumor ([16]; GSC17, PD marker): significantly reduced pERK
- median survival ([16]; GSC17 orthotopic, vs vehicle): no significant effects on survival
- tumor volume / tumor growth ([16]; GSC17 orthotopic, vs vehicle): not affected
- proliferation (Ki67 by immunohistochemistry) ([16]; GSC17 tumor sections, compared to vehicle): significantly reduced proliferation
- IC50 [17]: > 2 µM
- sensitivity in vitro ([18]; GSC11 line): most sensitive
- IC50 ([18]; GSC11 line in vitro): < 2 µM
- sensitivity in vitro ([19]; GSC7-2 line): not sensitive
- IC50 ([19]; GSC7-2 line in vitro): > 2 µM
- sensitivity in vitro ([20]; GSC20 line): insensitivity
- IC50 ([20]; GSC20 line in vitro): > 2 µM
- IC50 [21]: < 2 µM
- sensitivity in vitro ([22]; GSC17 line): moderately sensitive
- IC50 ([22]; GSC17 line in vitro): < 2 µM
